Reference: ChEMBL document CHEMBL4118101 (Bioorg Med Chem, 2018)
Values after ≈ are worked out from the molar mass of the structure shown. Active and inactive are the calls of the source. No cut-off for these calls is given here.

Columns and labels:
[1] = Hemolytic activity in mouse RBC at 62.5 ug/ml after 1 hr relative to control; format: ADME, cell-based, Erythrocyte; settings: mouse red blood cells (erythrocytes), read-out: Activity
Cryptococcus neoformans [2] = assay: Antifungal activity against Cryptococcus neoformans isolate CN2 measured after 48 hrs by CLSI M27-A3 protocol based method; format: functional; settings: Cryptococcus neoformans, isolate CN2, 48 h; read-out: MIC
Candida albicans [3] = assay: Antifungal activity against Candida albicans ATCC 10231 measured after 48 hrs by CLSI M27-A3 protocol based method; format: functional; settings: ATCC 10231, 48 h
Candida albicans [4] = assay: Antifungal activity against fluconazole/ITC-susceptible Candida albicans ATCC MYA-2876 measured after 48 hrs by CLSI M27-A3 protocol based method; format: functional; settings: Candida albicans, ATCC MYA-2876, 48 h
Candida albicans [5] = assay: Antifungal activity against fluconazole/ITC-resistant Candida albicans ATCC 90819 measured after 48 hrs by CLSI M27-A3 protocol based method; format: functional; settings: Candida albicans, ATCC 90819, 48 h; read-out: MIC
Candida albicans [6] = assay: Antifungal activity against fluconazole/ITC-resistant Candida albicans ATCC MYA-1237 measured after 48 hrs by CLSI M27-A3 protocol based method; format: functional; settings: Candida albicans, ATCC MYA-1237, 48 h; read-out: MIC
Nakaseomyces glabratus [7] = assay: Antifungal activity against Candida glabrata ATCC 2001 measured after 48 hrs by CLSI M27-A3 protocol based method; format: functional, CBS 138; settings: Nakaseomyces glabratus, CBS 138, 48 h; read-out: MIC
Pichia kudriavzevii = assay: Antifungal activity against Candida krusei ATCC 6258 measured after 48 hrs by CLSI M27-A3 protocol based method; format: functional; settings: Pichia kudriavzevii, ATCC 6258, 48 h
Candida parapsilosis [8] = assay: Antifungal activity against Candida parapsilosis ATCC 22019 measured after 48 hrs by CLSI M27-A3 protocol based method; format: functional; settings: Lodderomyces parapsilosis, ATCC 22019, 48 h
Aspergillus nidulans [9] = assay: Antifungal activity against Aspergillus nidulans ATCC 38163 measured after 48 hrs by CLSI M38-A2 protocol based method; format: functional; settings: ATCC 38163, 48 h
Aspergillus flavus = assay: Antifungal activity against Aspergillus flavus ATCC MYA-3631 measured after 48 hrs by CLSI M38-A2 protocol based method; format: functional; settings: ATCC MYA-3631, 48 h
Aspergillus terreus = assay: Antifungal activity against Aspergillus terreus ATCC MYA-3633 measured after 48 hrs by CLSI M38-A2 protocol based method; format: functional; settings: ATCC MYA-3633, 48 h
Nakaseomyces glabratus [10] = assay: Antifungal activity against Candida glabrata isolate CG1 measured after 48 hrs by CLSI M27-A3 protocol based method; format: functional; settings: Nakaseomyces glabratus, 48 h; read-out: MIC
Nakaseomyces glabratus [11] = assay: Antifungal activity against Candida glabrata isolate CG2 measured after 48 hrs by CLSI M27-A3 protocol based method; format: functional; settings: Nakaseomyces glabratus, isolate CG2, 48 h; read-out: MIC
Nakaseomyces glabratus [12] = assay: Antifungal activity against Candida glabrata isolate CG3 measured after 48 hrs by CLSI M27-A3 protocol based method; format: functional; settings: Nakaseomyces glabratus, 48 h; read-out: MIC
Candida parapsilosis [13] = assay: Antifungal activity against Candida parapsilosis isolate CP1 measured after 48 hrs by CLSI M27-A3 protocol based method; format: functional; settings: Lodderomyces parapsilosis, isolate CP1, 48 h
Candida parapsilosis [14] = assay: Antifungal activity against Candida parapsilosis isolate CP2 measured after 48 hrs by CLSI M27-A3 protocol based method; format: functional; settings: Lodderomyces parapsilosis, isolate CP2, 48 h
Cryptococcus neoformans [15] = assay: Antifungal activity against Cryptococcus neoformans isolate CN1 measured after 48 hrs by CLSI M27-A3 protocol based method; format: functional; settings: isolate CN1, 48 h
Cryptococcus neoformans [16] = assay: Antifungal activity against Cryptococcus neoformans isolate CN3 measured after 48 hrs by CLSI M27-A3 protocol based method; format: functional; settings: Cryptococcus neoformans, isolate CN3, 48 h; read-out: MIC
Candida parapsilosis [17] = assay: Antifungal activity against Candida parapsilosis isolate CP3 measured after 48 hrs by CLSI M27-A3 protocol based method; format: functional; settings: Lodderomyces parapsilosis, isolate CP3, 48 h
Candida albicans [18] = assay: Antifungal activity against Candida albicans ATCC 10231 measured after 48 hrs in presence of 10% FBS by CLSI M27-A3 protocol based method; format: functional; settings: Candida albicans, ATCC 10231, 48 h
Candida parapsilosis [19] = assay: Antifungal activity against Candida parapsilosis ATCC 22019 measured after 48 hrs in presence of 10% FBS by CLSI M27-A3 protocol based method; format: functional; settings: Lodderomyces parapsilosis, ATCC 22019, 48 h
Aspergillus nidulans [20] = assay: Antifungal activity against Aspergillus nidulans ATCC 38163 measured after 48 hrs in presence of 10% FBS by CLSI M38-A2 protocol based method; format: functional; settings: ATCC 38163, 48 h
[21] = Hemolytic activity in mouse RBC at 0.48 ug/ml after 1 hr relative to control; format: ADME, cell-based, Erythrocyte; settings: mouse red blood cells (erythrocytes), read-out: Activity
[22] = Hemolytic activity in mouse RBC at […] ug/ml after 1 hr relative to control; format: ADME, cell-based, Erythrocyte; settings: mouse red blood cells (erythrocytes), read-out: Activity
[23] = Hemolytic activity in mouse RBC at 1.95 ug/ml after 1 hr relative to control; format: ADME, cell-based, Erythrocyte; settings: mouse red blood cells (erythrocytes), at 1.95 µg/mL, read-out: Activity
[24] = Hemolytic activity in mouse RBC at 3.9 ug/ml after 1 hr relative to control; format: ADME, cell-based, Erythrocyte; settings: mouse red blood cells (erythrocytes), read-out: Activity
[25] = Hemolytic activity in mouse RBC at 7.8 ug/ml after 1 hr relative to control; format: ADME, cell-based, Erythrocyte; settings: mouse red blood cells (erythrocytes), read-out: Activity
[26] = Hemolytic activity in mouse RBC at 31.3 ug/ml after 1 hr relative to control; format: ADME, cell-based, Erythrocyte; settings: mouse red blood cells (erythrocytes), at 31.3 µg/mL, read-out: Activity
[27] = Cytotoxicity against HEK293 cells assessed as cell survival at 3.9 ug/ml after 24 hrs by resazurin based assay relative to control; settings: human, read-out: Survival
BEAS-2B = assay: Cytotoxicity against human BEAS2B cells up to 7.8 ug/ml after 24 hrs by resazurin based assay; format: cell-based
A549 = assay: Cytotoxicity against human A549 cells up to 7.8 ug/ml after 24 hrs by resazurin based assay; format: cell-based; settings: a549, 24 h
Candida albicans [28] = assay: Induction of membrane permeabilization in Candida albicans ATCC 10231 assessed as membrane disruption at 4 times MIC after 1 hr by propidium iodide staining based fluorescence microscopy; format: functional, organism-based
Candida albicans [29] = assay: Inhibition of Candida albicans ATCC 10231 ERG11 assessed as ergosterol composition of total sterols at 0.48 ug/ml incubated for 10 mins followed by saponification for 2 hrs by GC-MS method (reference value: 100%); set-up: scale not given: the % may be the effect or the level left
Candida albicans [30] = assay: Inhibition of Candida albicans ATCC 10231 ERG11 assessed as lanosterol composition of total sterols at 0.48 ug/ml incubated for 10 mins followed by saponification for 2 hrs by GC-MS method relative to control; set-up: scale not given: the % may be the effect or the level left
Candida albicans [31] = assay: Inhibition of Candida albicans ATCC 10231 ERG11 assessed as eburicol composition of total sterols at 0.48 ug/ml incubated for 10 mins followed by saponification for 2 hrs by GC-MS method relative to control; set-up: scale not given: the % may be the effect or the level left
Candida albicans [32] = assay: Inhibition of Candida albicans ATCC 10231 ERG11 assessed as 14alphamethyl ergosta-8,24(28)-diene-3beta,6alpha-diol composition of total sterols at 0.48 ug/ml incubated for 10 mins followed by saponification for 2 hrs by GC-MS method relative to control; set-up: scale not given: the % may be the effect or the level left
Candida albicans [33] = assay: Ratio of MIC for Candida albicans ATCC 10231 in presence of 10% FBS to MIC for Candida albicans ATCC 10231 in absence of 10% FBS; format: functional
Aspergillus nidulans [34] = assay: Ratio of MIC for Aspergillus nidulans ATCC 38163 in presence of 10% FBS to MIC for Aspergillus nidulans ATCC 38163 in absence of 10% FBS; format: functional

CCCCCCCCCCCCNCC(O)(Cn1cncn1)c1ccc(F)cc1F (stereo not given)
hemolysis at 1 h, 62.5 ug/ml [1]: 98%
MIC (Cryptococcus neoformans [2]): 0.57 µM (≈ 0.241 µg/mL)
MIC (Candida albicans [3]): 2.3 µM (≈ 0.972 µg/mL)
MIC (Candida albicans [4]): 9.2 µM (≈ 3.89 µg/mL)
MIC (Candida albicans [5]): 4.6 µM (≈ 1.94 µg/mL)
MIC (Candida albicans [6]): 18.5 µM (≈ 7.82 µg/mL)
MIC (Nakaseomyces glabratus [7]): 2.3 µM (≈ 0.972 µg/mL)
MIC (Pichia kudriavzevii): 2.3 µM (≈ 0.972 µg/mL)
MIC (Candida parapsilosis [8]): 1.1 µM (≈ 0.465 µg/mL)
MIC (Aspergillus nidulans [9]): 4.6 µM (≈ 1.94 µg/mL)
MIC (Aspergillus flavus): 18.5 µM (≈ 7.82 µg/mL)
MIC (Aspergillus terreus): 9.2 µM (≈ 3.89 µg/mL)
MIC (Nakaseomyces glabratus [10]): 4.6 µM (≈ 1.94 µg/mL)
MIC (Nakaseomyces glabratus [11]): 2.3 µM (≈ 0.972 µg/mL)
MIC (Nakaseomyces glabratus [12]): 4.6 µM (≈ 1.94 µg/mL)
MIC (Candida parapsilosis [13]): 0.14 µM (≈ 0.0592 µg/mL)
MIC (Candida parapsilosis [14]): 0.57 µM (≈ 0.241 µg/mL)
MIC (Cryptococcus neoformans [15]): 0.57 µM (≈ 0.241 µg/mL)
MIC (Cryptococcus neoformans [16]): 1.1 µM (≈ 0.465 µg/mL)
MIC (Candida parapsilosis [17]): 0.28 µM (≈ 0.118 µg/mL)
MIC (Candida albicans [18]): 1.95 µg/mL
MIC (Candida parapsilosis [19]): 0.24 µg/mL
MIC (Aspergillus nidulans [20]): 7.8 µg/mL
hemolysis at 1 h, 0.48 ug/ml [21]: 2%
hemolysis at 1 h, 0.975 ug/ml [22]: 2%
hemolysis at 1 h, 15.6 ug/ml [22]: 86%
hemolysis at 1 h, 1.95 ug/ml [23]: 2%
hemolysis at 1 h, 3.9 ug/ml [24]: 8%
hemolysis at 1 h, 7.8 ug/ml [25]: 21%
hemolysis at 1 h, 31.3 ug/ml [26]: 100%
viability at 24 h, 3.9 ug/ml [27]: > 50%
Activity (BEAS-2B): Non-Toxic
Activity (A549): Non-Toxic
Activity (Candida albicans [28]): Active
Activity (Candida albicans [29]): 36.6%
Activity (Candida albicans [30]): 10%
Activity (Candida albicans [31]): 0.57%
Activity (Candida albicans [32]): 4.69%
Ratio (Candida albicans [33]): 2
Ratio (Aspergillus nidulans [34]): 4
